Source: patent US20200277268A1, “PENTAFLUOROPHENYL SULFONAMIDE COMPOUNDS, COMPOSITIONS AND USES THEREOF” (DALRIADA THERAPEUTICS INC., priority 2017, published 2020)

How the values were obtained:
in vitro = settings: mouse, hepatocytes
MOLM13 = assay: CellTiter-Blue cell viability, MOLM13; format: cell-based; settings: Homo sapiens, MOLM-13; AML cell line, 72 hours
Protocol: (§1) The anti-cancer efficacy of exemplary compounds of the application were assessed in vitro against different cancer cell lines. Cell viability was examined following treatment at various concentrations of inhibitor (0.097656-50 μM) using a CellTiter-Blue® cell viability assay. 1×10^4 cells/well were plated in 96-well assay plates in culture medium. All cells were grown in DMEM, IMDM and RPMI-1640 supplemented with 10% fetal bovine serum (FBS). In some instances, FBS was removed for periods ranging from 16-24 hours, and re-introduced with test compound addition. After 24 hrs, test compounds and vehicle controls were added to appropriate wells such that the final volume was 100 μl in each well. The cells were cultured for the desired test exposure period (72 hours) at 37° C. and 5% CO2. The assay plates were removed from 3° C. incubator and 20 μl/well of CellTiter-Blue® Reagent was added. The plates were incubated using standard cell culture conditions for 1-4 hours. Afterwards, the plates were shaken for 10 seconds and florescence was recorded at 560/590 nm using a Cytation 3 spectrophotometer. IC50 values were determined using non-linear regression analysis with GraphPad Prism 6.0 (GraphPad Software Inc.).

MV4-11 = assay: CellTiter-Blue cell viability, MV4-11; format: cell-based; settings: for IC50: Homo sapiens, MV4-11, AML cell line, 72 hours
Protocol: as §1

[1] = test system: healthy keratinocyte cells (HaCaT); assay: CellTiter-Blue cell viability, HaCaT; format: cell-based; settings: Homo sapiens, non-cancerous, 72 hours
Protocol: as §1

[2] = test system: healthy human lung cells (MRC9); assay: CellTiter-Blue cell viability, MRC9; format: cell-based; settings: non-cancerous, 72 hours
Protocol: as §1

[3] = test system: primary human fibroblast cells (PHF); assay: CellTiter-Blue cell viability, PHF; format: cell-based; settings: non-cancerous, 72 hours
Protocol: as §1

[4] = Intrinsic clearance in mouse hepatocytes
ATCC3034 = assay: Cell viability, medulloblastoma ATCC3034; format: cell-based; settings: medulloblastoma cell line
Protocol: as §1, with “Inc.). […]” for “Inc.).”

D458 = assay: Cell viability, medulloblastoma D458; format: cell-based; settings: medulloblastoma cell line
Protocol: as §1, with “Inc.). […]” for “Inc.).”

D425 = assay: Cell viability, medulloblastoma D425; format: cell-based; settings: medulloblastoma cell line
Protocol: as §1, with “Inc.). […]” for “Inc.).”

[5] = test system: UFMylation pathway (UBA5, UFC1, UFM1, c-Myc) in MV4-11 cells; assay: Western blot of UFMylation pathway in MV4-11 cells; format: cell-based; settings: 8 hours, 0 to 1 μM
Protocol: Post-treatment (8 hours) of MV4-11 cells with I-1 test compound at 1, 0.5, 0.25, 0.1 and 0 μM concentrations, all cells were lysed with radioimmunoprecipitation assay (RIPA) buffer: 20 mM Tris pH 7.4, 150 mM NaCl, 0.5% deoxycholate, 1% Triton X-100, 0.1% sodium dodecyl sulfate (SDS). Total protein was measured using BCA assay (Sigma). In each assay, clarified protein were resolved on a 4%-15% polyacrylamideSDS gel and transferred to a PVDF membrane (Bio-Rad). The membranes were blocked with 5% solution of skim milk powder in TBST and incubated for at least 1 hour followed by an overnight incubation at 4° C. in primary antibody (1:1000 dilution). Blots were probed with antibodies against UBA5, UFM1, UFC1, c-Myc, and beta-actin was used as a loading control (Santa Cruz Biotechnology catalog # sc-835). The PVDF membrane then washed with TBST (3 times for 5 minutes). A horseradish peroxides (HRP)-conjugated goat anti-mouse IgG secondary antibodies (Cell signaling Catalog #7076S) was applied to the membrane (1:5000 dilution) and incubated for 1 hour at room temperature. The blots were then rinsed again 3 times in TBST for 10 minutes. Bands were visualized using clarity western ECL substrate luminal/enhancer solution and peroxide solution 1:1 ratio for HRP secondary antibody, according to the manufacturer's instructions (Bio-Rad) and analyzed using Image lab software (Bio-Rad).

Row | Structure (SMILES) | IC50 (MOLM13) [µM] | IC50 (MV4-11) [µM] | IC50 [2] [µM] | IC50 [3] [µM] | further results
1 | COc1ccc(NS(=O)(=O)c2c(F)c(F)c(F)c(F)c2F)cc1F [Batabulin] | – | – | – | – | half-life at 1 μM (in vitro): 0.298 h
2 | O=S(=O)(c1ccc(F)cc1)N(Cc1ccc(F)cc1)C1CC1 [Comparative Example 3, N-cyclopropyl-4-fluoro-N-(4-fluorobenzyl)benzenesulfonamide, reference compound] | > 25 | > 25 | > 25 | – | activity in AML cells (MV4-11; AML cells (MV4-11 and MOLM13)): inactive; IC50 [1]: > 25 µM
3 | O=S(=O)(c1c(F)c(F)c(F)c(F)c1F)N(Cc1ccc(F)cc1)CC1CC1 [Compound I-2, N-(cyclopropylmethyl)-2,3,4,5,6-pentafluoro-N-(4-fluorobenzyl)benzenesulfonamide] | 1.6 | 0.85 | 7.7 | 2.9 | –
4 | O=S(=O)(c1c(F)c(F)c(F)c(F)c1F)N(Cc1ccc(Cl)cc1)C1CC1 [Compound I-7, N-(4-chlorobenzyl)-N-cyclopropyl-2,3,4,5,6-pentafluorobenzenesulfonamide] | 3.5 | 1.37 | 16.4 | 2.7 | half-life at 1 μM [4]: 1.92 h; IC50 (ATCC3034): 0.3 µM; IC50 (D458): 2 µM; IC50 (D425): 1.4 µM
5 | COc1ccc(CN(C2CC2)S(=O)(=O)c2c(F)c(F)c(F)c(F)c2F)cc1 [Compound I-8, N-cyclopropyl-2,3,4,5,6-pentafluoro-N-(4-methoxybenzyl)benzenesulfonamide] | 0.73 | 0.93 | – | – | IC50 [1]: 17.4 µM
6 | O=S(=O)(c1c(F)c(F)c(F)c(F)c1F)N(Cc1ccc(F)nc1)C1CC1 [Compound I-12, N-cyclopropyl-2,3,4,5,6-pentafluoro-N-((6-fluoropyridin-3-yl)methyl)benzenesulfonamide] | 3.07 | 1.35 | 18 | 5 | –
7 | O=S(=O)(c1c(F)c(F)c(F)c(F)c1F)N(Cc1ccc(F)cn1)C1CC1 [Compound I-13, N-cyclopropyl-2,3,4,5,6-pentafluoro-N-((5-fluoropyridin-2-yl)methyl)benzenesulfonamide] | 1.1 | 1.7 | 25 | 5.5 | –
8 | CC(C)N(Cc1ccc(F)cc1)S(=O)(=O)c1c(F)c(F)c(F)c(F)c1F [Compound I-16, 2,3,4,5,6-pentafluoro-N-(4-fluorobenzyl)-N-isopropylbenzenesulfonamide] | 3.5 | 1.2 | 25 | 7.2 | –
9 | NC(=O)c1ccc(CN(C2CC2)S(=O)(=O)c2c(F)c(F)c(F)c(F)c2F)cc1 [Compound I-20, 4-(((N-cyclopropyl-2,3,4,5,6-pentafluorophenyl)sulfonamido)methyl)benzamide] | 1.7 | 1.05 | – | 4.9 | –
10 | N#Cc1ccc(CN(C2CC2)S(=O)(=O)c2c(F)c(F)c(F)c(F)c2F)cc1 [Compound I-23, N-(4-cyanobenzyl)-N-cyclopropyl-2,3,4,5,6-pentafluorobenzenesulfonamide] | 2.58 | 0.99 | 7.8 | 5.5 | –

Now from value to compound, other results behind:

Row | IC50 (MOLM13) [µM] | IC50 (MV4-11) [µM] | Structure (SMILES) | IC50 [2] [µM] | IC50 [3] [µM] | further results
11 | 1.05 | 0.95 | O=S(=O)(c1c(F)c(F)c(F)c(F)c1F)N(Cc1ccc(C(F)(F)F)cc1)C1CC1 [Compound I-25, N-cyclopropyl-2,3,4,5,6-pentafluoro-N-(4-(trifluoromethyl)benzyl)benzenesulfonamide] | – | 3 | –
12 | 1.9 | 1.2 | O=C(O)c1ccc(CN(C2CC2)S(=O)(=O)c2c(F)c(F)c(F)c(F)c2F)cc1 [Compound I-26, 4-(((N-cyclopropyl-2,3,4,5,6-pentafluorophenyl)sulfonamido)methyl)benzoic acid] | – | 6.5 | –
13 | 7.95 | 0.96 | O=S(=O)(c1c(F)c(F)c(F)c(F)c1F)N(Cc1cccc(N2CCOCC2)c1)C1CC1 [Compound I-34, N-cyclopropyl-2,3,4,5,6-pentafluoro-N-(3-morpholinobenzyl)benzenesulfonamide] | 14.1 | – | –
14 | 3.96 | 1.7 | O=S(=O)(c1c(F)c(F)c(F)c(F)c1F)N(Cc1ccc(F)cc1F)C1CC1 [Compound I-35, N-cyclopropyl-N-(2,4-difluorobenzyl)-2,3,4,5,6-pentafluorobenzenesulfonamide] | 13.5 | – | –
15 | 6.81 | 1.52 | O=S(=O)(c1c(F)c(F)c(F)c(F)c1F)N(Cc1c(F)cc(F)cc1F)C1CC1 [Compound I-36, N-cyclopropyl-2,3,4,5,6-pentafluoro-N-(2,4,6-trifluorobenzyl)benzenesulfonamide] | 26 | 8.1 | –
16 | 8.51 | 1.43 | Nc1ccc(-c2ccccc2CN(C2CC2)S(=O)(=O)c2c(F)c(F)c(F)c(F)c2F)cc1 [Compound I-38, N-((4′-amino-[1,1′-biphenyl]-2-yl)methyl)-N-cyclopropyl-2,3,4,5,6-pentafluorobenzenesulfonamide] | 13.1 | – | –
17 | 14.9 | 1.52 | Nc1cccc(-c2ccc(CN(C3CC3)S(=O)(=O)c3c(F)c(F)c(F)c(F)c3F)cc2)c1 [Compound I-39, N-((3′-amino-[1,1′-biphenyl]-4-yl)methyl)-N-cyclopropyl-2,3,4,5,6-pentafluorobenzenesulfonamide] | 15.7 | – | –
18 | 3.2 | 0.33 | O=S(=O)(c1c(F)c(F)c(F)c(F)c1F)N(Cc1ccccc1F)C1CC1 [Compound I-40, N-cyclopropyl-2,3,4,5,6-pentafluoro-N-(2-fluorobenzyl)benzenesulfonamide] | – | – | reduction of UBA5 levels and UFC1-UFM1 conjugate levels [5]: comparable activity to I-1
19 | 3.9 | 2.27 | O=S(=O)(c1c(F)c(F)c(F)c(F)c1F)N(Cc1ccccc1F)C1CCC1 [Compound I-45, N-cyclobutyl-2,3,4,5,6-pentafluoro-N-(2-fluorobenzyl)benzenesulfonamide] | 14.2 | – | –
20 | 8.4 | 1.14 | O=S(=O)(c1c(F)c(F)c(F)c(F)c1F)N(Cc1c(F)cc(F)cc1F)C1CCC1 [Compound I-47, N-cyclobutyl-2,3,4,5,6-pentafluoro-N-(2,4,6-trifluorobenzyl)benzenesulfonamide] | 15.7 | 3.7 | –
21 | 4.11 | 1.19 | CC(C)N(Cc1ccccc1F)S(=O)(=O)c1c(F)c(F)c(F)c(F)c1F [Compound I-48] | 15 | 3 | –
22 | 4.2 | 1.01 | CC(C)N(Cc1ccc(F)cc1F)S(=O)(=O)c1c(F)c(F)c(F)c(F)c1F [Compound I-49, N-(2,4-difluorobenzyl)-2,3,4,5,6-pentafluoro-N-isopropylbenzenesulfonamide] | 16.7 | 4.5 | –
23 | 1.7 | 0.7 | CC(C)(C)C(=O)N(Cc1ccc(F)cc1)S(=O)(=O)c1c(F)c(F)c(F)c(F)c1F [Compound I-54, N-(4-fluorobenzyl)-N-((perfluorophenyl)sulfonyl)pivalamide] | – | 3 | –
24 | 0.73 | 0.43 | O=S(=O)(c1c(F)c(F)c(F)c(F)c1F)N(Cc1ccc(F)cc1)C1CCC1 [Compound I-55, N-cyclobutyl-2,3,4,5,6-pentafluoro-N-(4-fluorobenzyl)benzenesulfonamide] | – | 2.5 | reduction of UBA5 levels and UFC1-UFM1 conjugate levels [5]: comparable activity to I-1
